Experimental data published in BindingDB's records for doi:10.7270/Q2GH9GBT (Nmmlsc, 2008).
Counter-ions that a name gives are not always drawn.

Target: T1, Bcl-2-like protein 10 [11-204] (Homo sapiens, UniProt Q9HD36)
T1 construct: 11-204
T1 sequence (Q9HD36 whole entry): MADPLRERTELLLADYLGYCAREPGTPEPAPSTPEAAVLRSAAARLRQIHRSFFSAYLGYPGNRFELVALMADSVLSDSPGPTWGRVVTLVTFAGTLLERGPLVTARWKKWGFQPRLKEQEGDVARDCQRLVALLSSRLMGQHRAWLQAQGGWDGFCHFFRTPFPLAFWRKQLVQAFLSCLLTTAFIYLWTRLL
Assay: modulators of Bcl-B/Bim peptide interaction – biochemical, multiplexed, bead-based flow cytometry, human, dose response (AID 1327)
Details: not given

Row | SMILES | EC50 [µM]
1 | Cc1nc2ncccn2c1-c1csc(Nc2ccc(O)cc2)n1 | 0.12
2 | COc1ccc(CC(=O)Nc2ccc(-c3nc4cc(C)ccc4o3)c(O)c2)cc1OC [2-(3,4-dimethoxyphenyl)-N-[(4Z)-3-keto-4-(5-methyl-3H-1,3-benzoxazol-2-ylidene)cyclohexa-1,5-dien-1-yl]acetamide] | 14.8
3 | Nc1ccc(N2CCN(CCCCN3C(=O)C4CCCN4C3=O)CC2)cc1 (stereo unspecified) [2-[4-[4-(4-aminophenyl)-1-piperazinyl]butyl]-5,6,7,7a-tetrahydropyrrolo[1,2-c]imidazole-1,3-dione;hydrate;hydrochloride] | 52.5
4 | COc1ccccc1Cn1nnc2c(=O)[nH]c(C3CCN(C(=O)c4ccc(C)cc4)CC3)nc21 [3-[(2-methoxyphenyl)methyl]-5-[1-(4-methylphenyl)carbonylpiperidin-4-yl]-2H-[1,2,3]triazolo[4,5-d]pyrimidin-7-one] | 12.2
5 | Cc1cc(N)ccc1N1CCCC1 [3-methyl-4-(1-pyrrolidinyl)aniline;hydrochloride] | 2.13
6 | COc1ccccc1Nc1nc(-c2c(C)nc3ncccn23)cs1 [(2-methoxyphenyl)-[4-(2-methylimidazo[1,2-a]pyrimidin-3-yl)thiazol-2-yl]amine;hydrobromide] | 0.82
7 | CN(C)[C@@H]1C(=O)C(C(=O)NCN2CCCC2)C(=O)[C@@]2(O)C(=O)C3C(=O)c4c(O)cccc4[C@@](C)(O)C3CC12 (stereo partly drawn) [(2Z,4S,6S,12aS)-4-(dimethylamino)-6,10,11,12a-tetrahydroxy-2-[hydroxy-(1-pyrrolidinylmethylamino)methylidene]-6-methyl-4,4a,5,5a-tetrahydrotetracene-1,3,12-trione] | 14.3
8 | COc1cc(CN=Nc2nn3cnnc3c3ccccc23)ccc1O [(4E)-2-methoxy-4-[[2-([1,2,4]triazolo[3,4-a]phthalazin-6-yl)hydrazinyl]methylidene]cyclohexa-2,5-dien-1-one] | 1.07
9 | O=c1c2c(n3nnnc3n1Cc1ccccc1)-c1ccccc1CC21CCCC1 [MLS000030575] | 5.52
10 | Clc1nc(NCc2cccnc2)nc(N2CCOCC2)n1 [MLS000121154] | 8.51
11 | Clc1ccc2c(N=NCc3ccccc3Br)ccnc2c1 [MLS000336087] | 9.57
12 | O=S1(=O)N=C(N(CCO)N=Cc2ccncc2)c2ccccc21 [MLS000682942] | 11.8
13 | OCCN1CCN(CCCc2c3c(cc4c2CCC4)CCC3)CC1 [MLS000698424] | 15.5
14 | COc1cccc2c(SCC(=O)NN=Cc3ccc(O)cc3O)cc(C)nc12 [N'-[(E)-(2-hydroxy-4-oxo-1-cyclohexa-2,5-dienylidene)methyl]-2-[(8-methoxy-2-methyl-4-quinolinyl)thio]acetohydrazide] | 9.13
15 | COc1cc(C=NNC(=O)CN(Cc2ccco2)S(=O)(=O)c2ccccc2)ccc1O [N-(2-furanylmethyl)-N-[2-[[(E)-(3-methoxy-4-oxo-1-cyclohexa-2,5-dienylidene)methyl]hydrazo]-2-oxoethyl]benzenesulfonamide] | 7.81
16 | COc1cccc(CN=Nc2nn3cnnc3c3ccccc23)c1 [N-[1-(3-Methoxy-phenyl)-meth-(E)-ylidene]-N'-[1,2,4]triazolo[3,4-a]phthalazin-6-yl-hydrazine] | 0.98
17 | Clc1ccc2c(N=NCc3ccc(Br)cc3)ccnc2c1 [N-[(4-bromophenyl)methylideneamino]-7-chloranyl-quinolin-4-amine] | 20.9
18 | Cc1cccc(OCC(=O)NCC(=O)NN=Cc2cc(Br)ccc2OCc2ccccc2)c1 [N-[(5-bromanyl-2-phenylmethoxy-phenyl)methylideneamino]-2-[2-(3-methylphenoxy)ethanoylamino]ethanamide] | 5.53

Same assay, conditions: inactive by the depositor's call

Row | SMILES | EC50 [µM]
19 | Cc1ccc(C)n1-c1cccc(C(=O)O)c1 | 49.5
20 | O=C(Nc1ccc2nc(-c3ccco3)c(-c3ccco3)nc2c1)N1CCCCCC1 | 33.3
21 | CN1CCN(C2=C(Cl)C(=O)C(c3cnc(N4CCCCC4)s3)=C(Cl)C2=O)CC1 | 3.42
22 | CCOC(=O)c1ccc(Nc2nc(C(=O)OCC)nc3ccccc23)cc1 | 2.18
23 | CCOCCCn1c(N)c(C(=O)Nc2sc3c(c2C(=O)OC)CCCC3)c2nc3ccccc3nc21 | 1.28
24 | O=S1(=O)N=C(N(CCO)N=C/C=C/c2ccccc2)c2ccccc21 | 11.7
25 | CCOC(=O)c1c2c3c(cccc3[nH]c1=O)C(=O)c1ccccc1-2 | 3.53
26 | CCN(CC)c1ccc(-c2nn3c(-c4ccccc4OC)nnc3s2)cc1 | 21.7
27 | O=C(NCc1ccccc1)c1ccc2nc(-c3ccco3)c(-c3ccco3)nc2c1 [2,3-bis(furan-2-yl)-N-(phenylmethyl)quinoxaline-6-carboxamide] | 20.6
28 | O=C(Nc1ccccc1)c1ccc2nc(-c3ccco3)c(-c3ccco3)nc2c1 [2,3-di-2-furyl-N-phenyl-6-quinoxalinecarboxamide] | 33.8
29 | O=C(COc1ccccc1)N1CCN(c2ncnc3c2cnn3-c2ccccc2)CC1 [2-Phenoxy-1-[4-(1-phenyl-1H-pyrazolo[3,4-d]pyrimidin-4-yl)-piperazin-1-yl]-ethanone] | 19.2
30 | Cc1cccc(C=NN(CCO)C2=NS(=O)(=O)c3ccccc32)c1 [2-[(1,1-dioxo-1,2-benzothiazol-3-yl)-[(3-methylphenyl)methylideneamino]amino]ethanol] | 38.7
31 | Cc1cc(OCc2cn3cccnc3n2)ccc1Cl [2-[(4-chloranyl-3-methyl-phenoxy)methyl]imidazo[1,2-a]pyrimidine] | 17.3
32 | O=S1(=O)N=C(N(CCO)N=Cc2ccccc2)c2ccccc21 [2-[(benzylideneamino)-(1,1-dioxo-1,2-benzothiazol-3-yl)amino]ethanol] | 12.8
33 | O=C(CSc1ccc2nnc(-c3ccccn3)n2n1)Nc1nccs1 [2-[[3-(2-pyridinyl)-[1,2,4]triazolo[4,3-b]pyridazin-6-yl]thio]-N-(2-thiazolyl)acetamide] | 5.54
34 | O=C(NCCCN1CCN(CCCNC(=O)c2cc([N+](=O)[O-])ccc2Cl)CC1)c1cc([N+](=O)[O-])ccc1Cl [2-chloranyl-N-[3-[4-[3-[(2-chloranyl-5-nitro-phenyl)carbonylamino]propyl]piperazin-1-yl]propyl]-5-nitro-benzamide] | 43.4
35 | Cc1nc2ncccn2c1-c1csc(Nc2ccccc2)n1 [4-(2-methyl-3-imidazo[1,2-a]pyrimidinyl)-N-phenyl-2-thiazolamine] | 1.38
36 | COc1ccccc1-n1c(-c2ccc(Cl)cc2)c[nH]c1=S [4-(4-chlorophenyl)-3-(2-methoxyphenyl)-1H-imidazole-2-thione] | 11.4
37 | Cc1cc(C)nc(SCc2cc(=O)c(OC(=O)c3ccc(Cl)c([N+](=O)[O-])c3)co2)n1 [4-chloro-3-nitrobenzoic acid [6-[[(4,6-dimethyl-2-pyrimidinyl)thio]methyl]-4-oxo-3-pyranyl] ester] | 1.51
38 | COc1ccc(C2=Nn3c(nnc3-c3ccco3)SC2)cc1OC [6-(3,4-Dimethoxy-phenyl)-3-furan-2-yl-7H-[1,2,4]triazolo[3,4-b][1,3,4]thiadiazine] | 1.15
39 | COc1ccc(C2=Nn3c(nnc3-c3ccccn3)SC2)cc1OC [6-(3,4-dimethoxyphenyl)-3-(2-pyridinyl)-7H-[1,2,4]triazolo[3,4-b][1,3,4]thiadiazine] | 6.18
40 | CN(N=C/C=C/c1ccccc1)C1=NS(=O)(=O)c2ccccc21 [(1E,2E)-3-phenylacrylaldehyde (1,1-dioxido-1,2-benzisothiazol-3-yl)(methyl)hydrazone] | 1.94

Row | SMILES | EC50 [µM]
41 | Cc1cc(-c2nnc3n2N=C(c2ccc(-c4ccccc4)cc2)CS3)[nH]n1 [MLS000082991] | 36.4
42 | O=C1NC(=O)C2(Cc3c(nc4ccccn4c3=O)N3CCCCCC32)C(=O)N1Cc1ccccc1 (stereo unspecified) [MLS000083668] | 18.2
43 | Cc1cc2n(c1)CCn1c(C)ccc1-2 [MLS000104384] | 11.8
44 | O=C(Nc1ccncc1)c1cc2ccccc2o1 [MLS000109378] | 62.1
45 | CCOC(=O)C1CCN(C(=O)Nc2ccc3nc(-c4ccco4)c(-c4ccco4)nc3c2)CC1 [MLS000113285] | 46.4
46 | Cc1cc(C)cc(NS(=O)(=O)c2ccc3c(c2)c(=O)n(C)c(=O)n3C)c1 [MLS000521783] | 17.4
47 | COCCCn1c(N)c(C(=O)Nc2sc3c(c2C(=O)OC)CCCC3)c2nc3ccccc3nc21 [MLS000595323] | 1.39
48 | COc1ccc(C)cc1-n1c(=O)c2ccccc2c2ccccc2c1=O [MLS000682999] | 15.6
49 | Cc1ccnc(SCc2cc(=O)c(OC(=O)c3ccc(Cl)c([N+](=O)[O-])c3)co2)n1 [MLS000696790] | 6.62
50 | CCOC(=O)c1c(O)nc2ccc(Cl)c3c2c1-c1ccccc1C3=O [MLS000704595] | 1.32
51 | Cc1ccc(OCc2cn3cccnc3n2)cc1 [MLS000723172] | 30.6
52 | COc1ccccc1-n1c(-c2ccccc2)c[nH]c1=S [MLS001007615] | 32.1
53 | c1ccc(Nc2cccc(Nc3ccccc3)n2)cc1 [N,N'-diphenyl-2,6-pyridinediamine] | 7.82
54 | CC(=O)c1ccc(NC(=O)c2ccc3nc(-c4ccco4)c(-c4ccco4)nc3c2)cc1 [N-(4-acetylphenyl)-2,3-di-2-furyl-6-quinoxalinecarboxamide] | 33.7
55 | COc1ccc(CCNC(=O)c2ccc3nc(-c4ccco4)c(-c4ccco4)nc3c2)cc1OC [N-[2-(3,4-dimethoxyphenyl)ethyl]-2,3-di-2-furylquinoxaline-6-carboxamide] | 52.4
56 | Cc1ccc(C=NN(C)C2=NS(=O)(=O)c3ccccc32)o1 [N-methyl-N-[(5-methyl-2-furanyl)methylideneamino]-1,1-dioxo-1,2-benzothiazol-3-amine] | 7.38
57 | CSc1nnc2c3cc(C)ccc3n(Cc3ccccc3)c2n1 [SMR000046397] | 30.7
58 | c1ccc(-c2nc(N3CCCCCC3)c3ccccc3n2)nc1 [SMR000046752] | 16.7
59 | O=C(Nc1ccc2nc(-c3ccco3)c(-c3ccco3)nc2c1)NC1CC1 [SMR000118524] | 45.1
60 | C#CCn1cc(C=C2C(=O)c3ccccc3C2=O)c2ccccc21 [SMR000196125] | 17.8
61 | CN(N=Cc1cccnc1)C1=NS(=O)(=O)c2ccccc21 [SMR000207578] | 20
